From patent US9850282B2, “Stable pentadecapeptide salts, a process for preparation thereof, a use thereof in the manufacture of pharmaceutical preparations and a use thereof in therapy” (priority 2013, dated 2017)
Where two headings read alike, the source gives them in different places. No end group written: not given here.

Columns and labels:
[1] = Collateral vessel presentation after femoral artery removal; type: in vivo, rats; conditions: 5-10 min after removal of femoral artery part; local 1 min bath (bepecin 10 μg/kg, L-arginine 100 mg/kg, L-NAME 5 mg/kg)
Description: Bepecin has a particular beneficial effect after large blood vessel removal. Unlike L-NAME and L-arginine, bepecin rapidly bridges defect between the stumps of the vessel, thus even in the case of the worst scenario, rapidly reorganizing blood supply. Part of femoral artery in rats (between a. epigastrica caudalis and a. femoralis circumflexa lateralis) was removed in order to investigate collateral vessel presentation within vascular defect following formation of critical size vascular defect. Collateral vessel presentation within vascular defect was assessed according to the method described for microangiographic assessment in Cardiovasc Res. 1997 September; 35(3): 547-52. Thermographic imaging was performed using an infrared camera.

[2] = Bleeding and thrombocytopenia after amputation; type: in vivo, rats; conditions: bepecin by itself
Method: Bepecin was administered intraperitoneally, intravenously or intragastrically (10 μg/kg, 10 ng/kg body weight).

[3] = simulated gastric fluid, 37° C.
[4] = Accelerated ageing at 50° C. and relative humidity of 65%; type: physicochemical
[5] = Stability in water at 100° C., 1 hour; type: physicochemical
Method: (§1) This addition will be in the range from 0.5 mg to 3.0 mg per 1 mg of bepecin. […] The stability of bepecin salt with L-arginine in water solutions was determined after incubation of aqueous salt solutions in concentration 1 g/100 ml, at 50° C., and in a separate test in very stringent conditions: at 100° C., where the decomposition was determined after one hour.

[6] = Stability in water solutions (1 g/100 ml) at 50° C.; type: physicochemical; conditions: for Pentadecapeptide content decrement in water at 50° C./time (hours): 20: 20 hours; for Pentadecapeptide content decrement in water at 50° C./time (hours): 65: 65 hours; for Pentadecapeptide content decrement in water at 50° C./time (hours): 148: 148 hours; for Pentadecapeptide content decrement in water at 50° C./time (hours): 388: 388 hours; for Pentadecapeptide content decrement in water at 50° C./time (hours): start/0: start/0 hours
Method: as §1

in vitro = conditions: artificial gastric juice with pepsin, 37° C.
[7] = 1 g/100 ml of water, 20° C., 253.7 nm, 70 min
[8] = 37° C.; for Pentadecapeptide content decrement (rel. %) in gastric juice at pH = 2.0, 2.5 hours: 150 min; for Pentadecapeptide content decrement (rel. %) in gastric juice at pH = 4.0, 6 hours: 360 min; for Pentadecapeptide content decrement (rel. %) in gastric juice at pH = 4.0, 7 hours: 420 min; for Pentadecapeptide content decrement (rel. %) in gastric juice at pH = 4.0, 8 hours: 480 min; for Pentadecapeptide content decrement (rel. %) in gastric juice at pH = 2.0, 1.5 hours: 90 min
Acute toxicity = type: in vivo, Wistar Albino rats; conditions: 1 g/kg body weight, intraperitoneally, intravenously or intragastrically
[9] = Anaphylactoid reaction induced by dextran and/or egg white; type: in vivo, rats, mouse; conditions: dextran and/or egg white i.v.; bepecin 10 μg, 1 μg, 10 ng, 10 pg/kg; clomipramine 20 mg/kg, cimetidine 10 mg/kg alone
HSV-1 and HSV-2 = experiment: Newborn mice, intracerebral inoculation with HSV-1 and HSV-2; type: in vivo; conditions: lethally infected newborn mice; agents applied 48 or 72 hours after viral infection; bepecin 10 and 100 μg/kg, acyclovir 10 and 100 mg/kg
[10] = intravenously, orally or intraperitoneally, 10 ng to 100 mg/kg; cited from earlier work
[11] = pH 2, Pentadecapeptide content decrement (rel. %) in gastric juice at pH = 2.0, 0.5 hours, pH 2.0
[12] = pH 3, Pentadecapeptide content decrement (rel. %) in gastric juice at pH = 3.0, 0.5 hours, pH 3.0
[13] = pH 2, Pentadecapeptide content decrement (rel. %) in gastric juice at pH = 2.0, 1.0 hours, pH 2.0, 1.0 h
[14] = pH 2, Pentadecapeptide content decrement (rel. %) in gastric juice at pH = 2.0, 2.0 hours, pH 2.0, 2.0 h
[15] = pH 4, Pentadecapeptide content decrement (rel. %) in gastric juice at pH = 4.0, 3 hours, pH 4.0, 3 h
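Wherever Pentadecapeptide content decrement (rel. %) in gastric juice at pH = 2.0, 0 hours is given: peptide salt at 10 mg/5 ml incubated in artificial gastric juice (HCl, NaCl, pepsin 1.0 g/l) at the listed pH and 37° C, peptide content tracked over time.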
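Wherever Pentadecapeptide content decrement (rel. %) in gastric juice at pH = 2.0, 2.5 hours is given: peptide salt at 10 mg/5 ml incubated in artificial gastric juice (HCl, NaCl, pepsin 1.0 g/l) at the listed pH and 37° C, peptide content tracked over time.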
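Wherever Pentadecapeptide content decrement (rel. %) in gastric juice at pH = 3.0, 0 hours is given: peptide salt at 10 mg/5 ml incubated in artificial gastric juice (HCl, NaCl, pepsin 1.0 g/l) at the listed pH and 37° C, peptide content tracked over time.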
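Wherever Pentadecapeptide content decrement (rel. %) in gastric juice at pH = 3.0, 3.0 hours is given: peptide salt at 10 mg/5 ml incubated in artificial gastric juice (HCl, NaCl, pepsin 1.0 g/l) at the listed pH and 37° C, peptide content tracked over time.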

COC(=O)[C@@H](N)CCCNC(=N)N[N+](=O)[O-] [L-NAME]
Collateral vessel presentation within vascular defect [1]: no collateral vessels are present

N=C(N)NCCC[C@H](N)C(=O)O [L-arginine]
Collateral vessel presentation within vascular defect [1]: Tiny collateral vessels were present, yet without interconnections

H-GEPPPGKPADDAGLV-OH [Bepecin]
Coagulation parameters [2]: does not affect the coagulation parameters by itself

GEPPPGKPADDAGLV [Arg-BPC, bepecin L-arginine salt (1:2)]
remaining at 0.5 h [3, 11]: 30.2% | remaining at 0.5 h [3, 12]: 98.1% | remaining at 1 h ([3]; pH 4, Pentadecapeptide content decrement (rel. %) in gastric juice at pH = 4.0, 1 hours, pH 4.0, 1 h): 99.9% | remaining at 2 h ([3]; pH 4, Pentadecapeptide content decrement (rel. %) in gastric juice at pH = 4.0, 2 hours, pH 4.0, 2 h): 99.5% | Pentadecapeptide content decrement in standing at 50° C. and relat. humidity 65%: 60 days [4]: 98.96% | Pentadecapeptide content decrement in standing at 50° C. and relat. humidity 65%: 90 days [4]: 99.07% | Pentadecapeptide content decrement in water at 100° C. - 1 hour: after 1 hour ([5]; after 1 hour): 99.08% (unchanged!) | Pentadecapeptide content decrement in water at 100° C. - 1 hour: start ([5]; start): 99.05% | Pentadecapeptide content decrement in water at 50° C./time (hours): 20 [6]: 98.97% | Pentadecapeptide content decrement in water at 50° C./time (hours): 65 [6]: 99.04% | Pentadecapeptide content decrement in water at 50° C./time (hours): 148 [6]: 99.10% | Pentadecapeptide content decrement in water at 50° C./time (hours): 388 [6]: 99.01% | pH ([6]; aqueous salt solution 1 g/100 ml): 7.35 | Pentadecapeptide content decrement in water at 50° C./time (hours): start/0 [6]: 99.05% | remaining at 1 h (in vitro; [13]): 13.5% | remaining at 1.5 h, 10 mg/5 ml (in vitro; pH 2, Pentadecapeptide content decrement (rel. %) in gastric juice at pH = 2.0, 1.5 hours, pH 2.0, 1.5 h): 8.2% | remaining at 2 h (in vitro; [14]): 6% | remaining at 4 h, 10 mg/5 ml (in vitro; pH 3, Pentadecapeptide content decrement (rel. %) in gastric juice at pH = 3.0, 4.0 hours, pH 3.0, 4.0 h): 87.2% | remaining at 5 h, 10 mg/5 ml (in vitro; pH 3, Pentadecapeptide content decrement (rel. %) in gastric juice at pH = 3.0, 5.0 hours, pH 3.0, 5.0 h): 84.9% | remaining at 3 h, 10 mg/5 ml (in vitro; [15]): 98.7% | remaining at 4 h, 10 mg/5 ml (in vitro; pH 4, Pentadecapeptide content decrement (rel. %) in gastric juice at pH = 4.0, 4 hours, pH 4.0, 4 h): 96.1% | remaining at 5 h, 10 mg/5 ml (in vitro; pH 4, Pentadecapeptide content decrement (rel. %) in gastric juice at pH = 4.0, 5 hours, pH 4.0, 5 h): 89.8% | Stability of aqueous solution under ultraviolet light [7]: stable | Pentadecapeptide content decrement (rel. %) in gastric juice at pH = 2.0, 0 hours [8]: 100 rel. % | Pentadecapeptide content decrement (rel. %) in gastric juice at pH = 2.0, 2.5 hours [8]: 4.9 rel. % | Pentadecapeptide content decrement (rel. %) in gastric juice at pH = 3.0, 0 hours [8]: 100 rel. % | Pentadecapeptide content decrement (rel. %) in gastric juice at pH = 3.0, 3.0 hours ([8]; 180 min): 90.0 rel. % | Pentadecapeptide content decrement (rel. %) in gastric juice at pH = 4.0, 0 hours ([8]; pH 4.0): 100 rel. % | Pentadecapeptide content decrement (rel. %) in gastric juice at pH = 4.0, 6 hours ([8]; pH 4.0): 84.6 rel. % | Pentadecapeptide content decrement (rel. %) in gastric juice at pH = 4.0, 7 hours ([8]; pH 4.0): 73.5 rel. % | Pentadecapeptide content decrement (rel. %) in gastric juice at pH = 4.0, 8 hours ([8]; pH 4.0): 67.2 rel. % | Acute toxicity (Acute toxicity): no toxicity and no adverse effects

CN/C(=N/CCSCc1nc[nH]c1C)NC#N [cimetidine]
Effect on anaphylactoid reactions [9]: only poorly effective or even ineffective

Bepecin L-Lysine Salt (1:3) [Lys-BPC]
Pentadecapeptide content decrement in standing at 50° C. and relat. humidity 65%: 0 day ([4]; 0 day): 99.47% | Pentadecapeptide content decrement in standing at 50° C. and relat. humidity 65%: 10 days ([4]; 10 days): 99.24% | Pentadecapeptide content decrement in standing at 50° C. and relat. humidity 65%: 30 days ([4]; 30 days): 99.27% | Pentadecapeptide content decrement in standing at 50° C. and relat. humidity 65%: 60 days [4]: 98.90% | Pentadecapeptide content decrement in standing at 50° C. and relat. humidity 65%: 90 days [4]: 99.28% | Pentadecapeptide content decrement in water at 50° C./time (hours): 20 [6]: 99.40% | Pentadecapeptide content decrement in water at 50° C./time (hours): 65 [6]: 99.09% | Pentadecapeptide content decrement in water at 50° C./time (hours): 148 [6]: 99.35% | Pentadecapeptide content decrement in water at 50° C./time (hours): 388 [6]: 99.01% | Pentadecapeptide content decrement in water at 50° C./time (hours): start/0 [6]: 99.07%

GEPPPGKPADDAGLV [BPC Na salt]
Pentadecapeptide content decrement (rel. %) in gastric juice at pH = 2.0, 0 hours [8]: 100 rel. % | Pentadecapeptide content decrement (rel. %) in gastric juice at pH = 2.0, 1.5 hours [8]: 4.4 rel. % | Pentadecapeptide content decrement (rel. %) in gastric juice at pH = 2.0, 2.5 hours [8]: 2.7 rel. % | Pentadecapeptide content decrement (rel. %) in gastric juice at pH = 3.0, 0 hours [8]: 100 rel. % | Pentadecapeptide content decrement (rel. %) in gastric juice at pH = 3.0, 3.0 hours ([8]; 180 min): 40.2 rel. % | Pentadecapeptide content decrement (rel. %) in gastric juice at pH = 4.0, 0 hours ([8]; pH 4.0): 100 rel. % | Pentadecapeptide content decrement (rel. %) in gastric juice at pH = 4.0, 3 hours ([8]; pH 4.0, 3 h, 180 min): 94.6 rel. % | Pentadecapeptide content decrement (rel. %) in gastric juice at pH = 4.0, 6 hours ([8]; pH 4.0): 76.3 rel. % | Pentadecapeptide content decrement (rel. %) in gastric juice at pH = 4.0, 7 hours ([8]; pH 4.0): 68.2 rel. % | Pentadecapeptide content decrement (rel. %) in gastric juice at pH = 4.0, 8 hours ([8]; pH 4.0): 60.9 rel. %

Nc1nc2c(ncn2COCCO)c(=O)[nH]1 [acyclovir]
Survival time (max.) (HSV-1 and HSV-2): 115 h | Survival time (min.) (HSV-1 and HSV-2): 105 h

Gly Glu Pro Pro Pro Gly Lys Pro Ala Asp Asp Ala Gly Leu Val (GEPPPGKPADDAGLV; also: salts with basic amino acids) [Peptide bepecin]
Toxic changes (LD50, acute, subchronic and chronic toxicity) [10]: did not induce any toxic changes

GEPPPGKPADDAGLV [BPC acetate]
remaining at 1 h [3, 13]: 8.2% | remaining at 2 h [3, 14]: 2.46% | remaining at 3 h ([3]; pH 3, Pentadecapeptide content decrement (rel. %) in gastric juice at pH = 3.0, 3.0 hours, pH 3.0, 3.0 h): 2.5% | remaining at 3 h [3, 15]: 72.5% | remaining at 0.5 h, 10 mg/5 ml (in vitro; [11]): 21.4% | remaining at 0.5 h, 10 mg/5 ml (in vitro; [12]): 41.7% | Pentadecapeptide content decrement (rel. %) in gastric juice at pH = 2.0, 0 hours [8]: 100 rel. % | Pentadecapeptide content decrement (rel. %) in gastric juice at pH = 2.0, 1.5 hours [8]: 4.75 rel. % | Pentadecapeptide content decrement (rel. %) in gastric juice at pH = 2.0, 2.5 hours [8]: 2.1 rel. % | Pentadecapeptide content decrement (rel. %) in gastric juice at pH = 3.0, 0 hours [8]: 100 rel. % | Pentadecapeptide content decrement (rel. %) in gastric juice at pH = 4.0, 0 hours ([8]; pH 4.0): 100 rel. % | Pentadecapeptide content decrement (rel. %) in gastric juice at pH = 4.0, 6 hours ([8]; pH 4.0): 48.8 rel. % | Pentadecapeptide content decrement (rel. %) in gastric juice at pH = 4.0, 7 hours ([8]; pH 4.0): 44.6 rel. % | Pentadecapeptide content decrement (rel. %) in gastric juice at pH = 4.0, 8 hours ([8]; pH 4.0): 38.0 rel. %

CN(C)CCCN1c2ccccc2CCc2ccc(Cl)cc21 [clomipramine]
Effect on anaphylactoid reactions [9]: only poorly effective or even ineffective
